In PMC4851402, “Validation of N-myristoyltransferase as Potential Chemotherapeutic Target in Mammal-Dwelling Stages of Trypanosoma cruzi” (PLoS Neglected Tropical Diseases, 2016):
“Also recorded” adds a separate entry of the source. Read-outs that look alike come from different tables or passages of the source.

Legend:
[1] = system: Purified ICAs of T. cruzi; test: microbe, parasite or virus in culture; assay type: cell-based, Trypanosoma cruzi (Y strain); settings: for EC50: read-out: Purified ICAs EC50
Procedure: Intracellular amastigote (ICA) forms were purified as described. Briefly, 5 x 10^6 LLC-MK2 cells were seeded in a 150-cm^2 tissue culture flask (NUNC, Thermo Scientific) and cells were grown for 3–4 days to reach confluency of ~2 x 10^7 cells per flask. The medium was then replaced with fresh complete medium and host cells were infected with 1 x 10^8 TCT (multiplicity of infection (MOI) ≈ 5). After 5 days, the infected monolayers were gently detached by scraping and resuspended in 5 mL phosphate-buffered saline (PBS). The suspension containing the infected cells was next transferred to an M-tube (Miltenyi Biotec Inc., San Diego, CA). This tube bears a special stator and rotor that allows for tissue homogenization. In addition, it has a pre-inserted mesh that retains larger particles, removing them from the homogenized sample. The tube was then placed in the gentleMACS Dissociator (Miltenyi Biotec) for the automated disruption of host cells. The homogenized sample containing the parasites was then passed through a column containing anion exchange preswollen microgranular diethylaminoethyl cellulose (DE52, Whatman, Sigma-Aldrich).
(§1) DMSO control wells contained 30 μL 6% DMSO, whereas wells for the negative control contained 1% hydrogen peroxide in DMEM. U2OS cells were resuspended in DMEM, 10% HI-FBS, to give a cell density of 2 x 10^5 cells/mL, while ICA forms were resuspended in DMEM, 10% HI-FBS, to a final density of 1 x 10^7 per well. Epi forms were resuspended in LIT medium to a density of 1 x 10^6 parasites per well. Hundred and fifty microliters of the suspension containing either host cells or parasites were added per well. Following 47- and 23-h incubation at 37°C for mammalian cells and ICA, respectively, a mixture of propidium iodide (Invitrogen) and Hoechst dye (Invitrogen) diluted in culture media (1 μg/mL each) was added to the plates, which were then further incubated for 1 h at 37°C. […] In the case of Epi, after 68-h incubation at 28°C, 18 μL Alamar Blue (AbD Serotec, Raleigh, NC) were added per well. Following an additional 4-h incubation, the plate was read in a microplate fluorometer (Thermo Scientific) at excitation 560 nm, emission 590 nm. Three independent experiments were performed in triplicate wells.
(§2) EC50 were determined from three independent experiments.

[2] = system: T. cruzi intracellular amastigote proliferation; test: In vitro T. cruzi intracellular proliferation assay in infected U2OS cells, high-content imaging; assay type: cell-based, Trypanosoma cruzi (Y strain); settings: read-out: T. cruzi proliferation assay EC50
Procedure: DMSO control wells contained 30 μL 6% DMSO. Human […] (U2OS cells) were diluted in DMEM, 10% heat inactivated-fetal bovine serum (HI-FBS) to give a cell density of 2 x 10^5 cells/mL. T. cruzi trypomastigotes were resuspended in DMEM, 10% HI-FBS to a final density of 1.2 x 10^7. Cells and parasites were mixed a ratio of 4 volumes of cells plus 1 volume of parasites. 150 μL of the mixture were dispensed per well. Plates were incubated for 48 h. After the incubation period, media was removed from the wells and 100 μL 4% paraformaldehyde (PFA) were added. After 15 min of incubation at room temperature, PFA was removed and cells and parasites were stained with Draq5 (BioStatus, Leicestershire, UK) at a concentration of 5 μM diluted in PBS. The plates were then read in a bioimager system as described below. Three independent experiments were performed in triplicate wells.
Filter sets appropriate for the excitation and emission spectra of Draq5 were utilized. Images from four fields (2 x 2 montage) were acquired per well with a 20x objective. To perform the host cell segmentation and counting of parasites, the BD AttoVision v1.6.2 Sub Object analysis was used. Draq5 creates a background, staining the host cell and parasite nucleus, but defining the cytoplasm as well, determining this way the amount of parasites within each mammalian cell. The host cell nucleus was excluded by size difference. Raw data was imported into the BD Image Data Explorer (BD Biosciences) to determine the percentage of infected cells containing at least 1, at least 3 or at least 5 intracellular parasites.
as §2

U2OS cells = test: Cytotoxicity (viability) assay on non-infected U2OS cells, high-content imaging; assay type: cell-based, human; settings: for EC50: Homo sapiens, read-out: U2OS cells EC50; for Toxicity on U2OS cells: after 48 h of treatment
Procedure: as §1, §2

TcNMT [3] = test: Metabolic labeling with myristic acid, azide and in-gel western blotting (on-target); assay type: cell-based, Trypanosoma cruzi; settings: 10 μM, 12 h, Epi, ICA and TCT
Procedure: Parasites were incubated with or without 10 μM of the inhibitor 1, 5, or 8 in 1 mL 2% delipidated BSA-DMEM at 37°C for ICA and TCT and at 28°C for Epi. After 6 h, 100 μM myristic acid, azide (from a 50-mM stock in DMSO) were added to the samples, and the same volume of DMSO was added to the negative control. Cells were incubated for another 6 h, for a 12-h treatment with the inhibitors. Next, the parasites were washed three times with PBS and lysed in 1% SDS, Tris-HCl, pH 8.0. “Click” reaction was performed between the myristic acid azide and Biotin Alkyne (Invitrogen) according to the manufacturer instructions using the Click-iT Protein Reaction Buffer Kit (Invitrogen). Duplicate aliquots of lysates were ran in 10% SDS-PAGE followed by fixing (5% acetic acid, 50% isopropanol) for 15 min. Gels were then analyzed by in-gel western blotting using IRDye streptavidin (LI-COR Biosciences, Lincoln, NE) 1:7500 in 5% BSA, 0.05% SDS, 0.2% Tween in PBS, for 1 h at room temperature. They were subsequently treated or not with 0.2 M NaOH in methanol for 1 h at room temperature. Gels were scanned in an ODYSSEY quantitative imagining system (LI-COR Biosciences). They were next stained with Coomassie blue and scanned again to determine total protein levels.

[4] = system: T. cruzi epimastigotes (Epi); test: Cytotoxicity assay on epimastigotes (Alamar Blue); assay type: cell-based, Trypanosoma cruzi (Y strain); settings: after 72 h; for EC50: Trypanosoma cruzi, read-out: Epi forms EC50
Procedure: DDD compounds 1–8 and the reference drug BZ were prepared 6-fold-concentrated in 6% DMSO, to give a final concentration of 1x compound in 1% DMSO. […] DMSO control wells contained 30 μL 6% DMSO, whereas wells for the negative control contained 1% hydrogen peroxide in DMEM. U2OS cells were resuspended in DMEM, 10% HI-FBS, to give a cell density of 2 x 10^5 cells/mL, while ICA forms were resuspended in DMEM, 10% HI-FBS, to a final density of 1 x 10^7 per well. Epi forms were resuspended in LIT medium to a density of 1 x 10^6 parasites per well. Hundred and fifty microliters of the suspension containing either host cells or parasites were added per well. Following 47- and 23-h incubation at 37°C for mammalian cells and ICA, respectively, a mixture of propidium iodide (Invitrogen) and Hoechst dye (Invitrogen) diluted in culture media (1 μg/mL each) was added to the plates, which were then further incubated for 1 h at 37°C. Finally, plates were read in the BD Pathway 855 bioimager system. In the case of Epi, after 68-h incubation at 28°C, 18 μL Alamar Blue (AbD Serotec, Raleigh, NC) were added per well. Following an additional 4-h incubation, the plate was read in a microplate fluorometer (Thermo Scientific) at excitation 560 nm, emission 590 nm. Three independent experiments were performed in triplicate wells. […] EC50 were determined from three independent experiments.

TcNMT [5] = test: Western blotting of TcNMT expression in treated parasites; assay type: cell-based, Trypanosoma cruzi; settings: 10 μM, 12 h
Procedure: Parasites (1 x 10^7 cells) were incubated with or without 10 μM of the inhibitor (compound 1, 5, or 8) in 1 mL 10% HI-FBS, DMEM at 37°C for ICA and TCT, and at 28°C for Epi for 12 h. Next, parasites were washed three times with PBS and lysed in 1% SDS, Tris-HCl, pH 8.0. Samples were run in 10% SDS-PAGE followed by western blot probed with anti-TcNMT at dilution 1:1000 in 5% milk-PBS overnight. This was followed by incubation with anti-rabbit IgG-HRP conjugated. The membrane was next stripped with boiling stripping buffer (3% SDS, 0.3% β-mercaptoethanol) for 10 min, followed by 4 washes with 0.1% PBS-T. It was then blot again with anti-BiP at dilution 1:500 in 5% milk-PBS overnight, at 4°C, followed by anti-rabbit IgG HRP-conjugated.

[6] = system: Epi, ICA and TCT forms of T. cruzi; test: [35S]-Methionine labeling (protein translation); assay type: cell-based, Trypanosoma cruzi; settings: 10 μM, 12 h
Procedure: Parasites were incubated with or without 10 μM of the inhibitors as described above. After 10 h, cells were starved in methionine deficient media for 1 h. Next, 20 μCi.mL^-1 [^35S]-methionine (Perkin Elmer) were added to the samples for 1 h incubation, for a 12-h treatment with the inhibitors. Next, the parasites were washed three times with PBS and lysed in 1% SDS, Tris-HCl, pH 8.0. Samples were ran in 4–12% gels (Expedeon, San Diego, CA) and transferred to polyvinylidene fluoride (PVDF) membranes (Sigma-Aldrich). Membranes were dried and exposed to Hyperfilm ECL (Amersham, GE Healthcare Lifesciences, Piscataway, NJ). To determine total protein levels, membranes were stained with Ponceau S after exposure.

T. brucei = system: T. brucei; set-up: method as in PMID 20360736; settings: T. brucei bloodstream forms; cited from earlier work
[7] = Trypanosoma cruzi, 24 h, purified ICAs, 24 h at 37°C
[8] = Trypanosoma cruzi, U2OS, 48 h, infected U2OS cells, 48 h at 37°C
[9] = non-infected U2OS cells, 48 h at 37°C

Compound | EC50 [1, 7] | EC50 [2, 8] | EC50 (U2OS cells; [9]) | Protein N-myristoylation bands (myristic acid azide labeling) (TcNMT [3]) | TcNMT expression in Epi (TcNMT [5]) | Toxicity on U2OS cells (U2OS cells) | Incorporation of [35S]-methionine into proteins [6] | also measured
Cc1c(NS(=O)(=O)c2ccc(CCCC3CCN(C)CC3)cc2)c(CC(C)C)nn1C [Compound 4] | > 50 µM | 0.54 µM | > 50 µM |  |  |  |  | 
Cc1nn(C)c(C)c1N(CC(F)(F)F)S(=O)(=O)c1c(Cl)cc(CCCC2CCN(C)CC2)cc1Cl [Compound 7] | 11.1 µM | 1.01 µM | 13.9 µM |  |  |  |  | 
Cc1nn(C)c(C)c1N(C(F)F)S(=O)(=O)c1c(Cl)cc(CCCC2CCN(C)CC2)cc1Cl [Compound 5] | 0.06 µM | 0.26 µM | 11.4 µM | decreased intensity or complete loss of most of the bands | overexpression of TcNMT | toxicity only at 50 μM | no effect | EC50 [4]: 9.7 µM
Cc1c(NS(=O)(=O)c2c(Cl)cc(-c3ccnc(N4CCNCC4)c3)cc2Cl)c(CC(C)C)nn1C [Compound 1] | 1.83 µM | 0.18 µM | 12.8 µM | decreased intensity or complete loss of most of the bands | overexpression of TcNMT | toxicity only at 50 μM | no effect | Effect on Epi parasite viability [4]: did not have a significant effect; EC50 ([1]; purified ICAs, 24 h at 37°C): 1.8 µM
Cc1nn(C)c(C)c1NS(=O)(=O)c1c(Cl)cc(CCCN2CCN(C)CC2)cc1Cl [Compound 3] |  |  |  |  |  |  |  | EC50 ([1]; Trypanosoma cruzi, 24 h): > 50 µM; EC50 ([2]; Trypanosoma cruzi, U2OS, 48 h): 10.3 µM; EC50 (U2OS cells; U2OS, 48 h): > 50 µM
Cc1c(NS(=O)(=O)c2ccc(-c3cccc(CN(C)C)c3)cc2)c(CC(C)C)nn1C [Compound 6] | > 50 µM | 0.99 µM | > 50 µM |  |  |  |  | 
Cc1nn(C)c(C)c1N(C(F)F)S(=O)(=O)c1c(Cl)cc(CCCCC2CCN(C)CC2)cc1Cl [Compound 8] | 0.02 µM | 0.35 µM | 11.9 µM | decreased intensity or complete loss of most of the bands | overexpression of TcNMT | toxicity only at 50 μM | no effect | EC50 [4]: 2.1 µM
Cc1nn(C)c(Cl)c1NS(=O)(=O)c1c(Cl)cc(-c2ccnc(N3CCNCC3)c2)cc1Cl [Compound 2] | > 50 µM | 1.14 µM | > 50 µM |  |  |  |  | Trypanocidal activity against purified ICA forms ([1]; purified ICA): no significant trypanocidal activity; also recorded: not trypanocidal; Efficacy in mouse model of human African trypanosomiasis (T. brucei): curative; EC50 ([2]; infected U2OS cells, 48 h at 37°C): 1.1 µM
